This is an account of results in patent publication US20190119348A1, “PARATHYROID HORMONE RECEPTOR 1 ANTAGONIST AND INVERSE AGONIST POLYPEPTIDES AND METHODS OF THEIR USE” (The General Hospital Corporation, priority 2016, published 2019).

The structures appear in SMILES notation. Like-named read-outs stand apart in the source and are kept apart here. Where a SMILES comes first, the peptide text is derived from it. [ ]: non-standard residue; d: D form. Nle = CCCC[C@H](N)C(=O)O

The test has as its target T1, endogenous hPTHR1 (Homo sapiens, UniProt Q03431).
T1 construct: Saos-2, in which is endogenously expressed the hPTHR1; endogenous in cells
T1 sequence (Q03431 27-593): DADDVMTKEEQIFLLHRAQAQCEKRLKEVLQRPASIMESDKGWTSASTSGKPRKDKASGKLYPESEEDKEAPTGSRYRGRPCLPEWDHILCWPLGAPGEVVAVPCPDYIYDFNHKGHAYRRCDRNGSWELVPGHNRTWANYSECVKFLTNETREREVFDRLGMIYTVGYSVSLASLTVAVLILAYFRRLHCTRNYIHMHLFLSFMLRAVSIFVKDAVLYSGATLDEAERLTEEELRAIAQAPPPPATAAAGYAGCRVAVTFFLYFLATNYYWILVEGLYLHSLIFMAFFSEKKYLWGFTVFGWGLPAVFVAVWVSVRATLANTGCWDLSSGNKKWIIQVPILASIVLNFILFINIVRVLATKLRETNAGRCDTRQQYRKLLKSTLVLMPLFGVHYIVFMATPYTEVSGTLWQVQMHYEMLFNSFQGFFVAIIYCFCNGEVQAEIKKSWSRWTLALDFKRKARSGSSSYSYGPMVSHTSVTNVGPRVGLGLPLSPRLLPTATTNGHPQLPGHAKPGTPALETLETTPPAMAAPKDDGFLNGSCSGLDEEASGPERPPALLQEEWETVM
Put plainly: Antagonism of PTH(1-34)- and PTHrP(1-36)-induced cAMP response (GloSensor) in SGS-72 cells. The class given is cell-based. An outline of the steps:
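SaOS2-derived SGS-72 cells, which express endogenous hPTHR1 and a stable GloSensor cAMP reporter, were loaded with 0.5 mM luciferin for 15 min at room temperature in CO2-independent medium with 0.1% BSA. Antagonist was tested against PTH(1-34) or PTHrP(1-36), with luminescence taken at the agonist-alone maximum; pIC50 came from four-parameter fits.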

Where [1] appears, read: IC50 PTH(1-34) (Table 6, nanomolar value), antagonist pre-treatment 15 minutes, PTH(1-34) 0.3 nM.

For the compound `CC[C@H](C)[C@H](N)C(=O)N[C@@H](CCC(N)=O)C(=O)N[C@@H](CC(C)C)C(=O)N[C@@H](CCSC)C(=O)N[C@@H](Cc1c[nH]cn1)C(=O)N[C@@H](CCC(N)=O)C(=O)N[C@@H](CCCNC(=N)N)C(=O)N[C@H](Cc1c[nH]c2ccccc12)C(=O)N[C@@H](CCCCN)C(=O)N[C@@H](Cc1c[nH]c2ccccc12)C(=O)N[C@H](C(=O)N[C@@H](CCC(N)=O)C(=O)N[C@@H](CC(=O)O)C(=O)N[C@@H](C)C(=O)N[C@@H](CCCNC(=N)N)C(=O)N[C@@H](CCCNC(=N)N)C(=O)N[C@@H](CCCNC(=N)N)C(=O)N[C@@H](C)C(=O)N[C@@H](Cc1c[nH]c2ccccc12)C(=O)N[C@@H](CC(C)C)C(=O)N[C@@H](Cc1c[nH]cn1)C(=O)N[C@@H](CCCCN)C(=O)N[C@@H](CC(C)C)C(=O)N[C@H](C(=O)N[C@@H](C)C(=O)N[C@@H](CCC(=O)O)C(=O)N[C@H](C(=O)N[C@@H](Cc1c[nH]cn1)C(=O)N[C@H](C(=O)N[C@@H](C)C(=O)N[C@@H](CCC(=O)O)C(=O)N[C@H](C(N)=O)[C@@H](C)CC)[C@@H](C)O)[C@@H](C)CC)[C@@H](C)CC)[C@@H](C)CC` [compound 1949, dW12, W23-LA-PTH(5-36)] (H-IQLMHQR[dW]KWIQDARRRAWLHKLIAEIHTAEI-NH2; N-terminus assumed), the IC50 is 1.45 nM under setting [1]; 1 nM (antagonist pre-treatment 10 minutes, PTHrP(1-36) 0.3 nM, seven experiments, read-out: corresponding nanomolar value vs. PTHrP(1-36) (Table 5)); 0.794 nM (antagonist pre-treatment 10 minutes, PTHrP(1-36) 0.3 nM, seven experiments, read-out: pIC50 vs. PTHrP(1-36) (Table 5) (converted)); 1.21 nM (antagonist pre-treatment 15 minutes, PTHrP(1-36) 0.3 nM, read-out: IC50 PTHrP(1-36) (Table 6, nanomolar value)); 1 nM (corresponding nanomolar value vs. PTH(1-34) (Table 5), antagonist pre-treatment 10 minutes, PTH(1-34) 0.3 nM, seven experiments); 0.776 nM (pIC50 vs. PTH(1-34) (Table 5), antagonist pre-treatment 10 minutes, PTH(1-34) 0.3 nM, seven experiments).
`CC[C@H](C)[C@H](NC(=O)[C@H](CCC(=O)O)NC(=O)[C@H](C)NC(=O)[C@@H](NC(=O)[C@H](Cc1c[nH]cn1)NC(=O)[C@@H](NC(=O)[C@H](CCC(=O)O)NC(=O)[C@H](C)NC(=O)[C@@H](NC(=O)[C@H](CC(C)C)NC(=O)[C@H](CCCCN)NC(=O)[C@H](Cc1c[nH]cn1)NC(=O)[C@H](CC(C)C)NC(=O)[C@H](Cc1c[nH]c2ccccc12)NC(=O)[C@H](C)NC(=O)[C@H](CCCNC(=N)N)NC(=O)[C@H](CCCNC(=N)N)NC(=O)[C@H](CCCNC(=N)N)NC(=O)[C@H](C)NC(=O)[C@H](CC(=O)O)NC(=O)[C@H](CCC(N)=O)NC(=O)[C@@H](NC(=O)[C@H](Cc1c[nH]c2ccccc12)NC(=O)[C@H](CCCCN)NC(=O)[C@@H](Cc1c[nH]c2ccccc12)NC(=O)[C@H](CCCNC(=N)N)NC(=O)[C@H](CCC(N)=O)NC(=O)[C@H](Cc1c[nH]cn1)NC(=O)[C@H](CCSC)NC(=O)[C@@H](N)CC(C)C)[C@@H](C)CC)[C@@H](C)CC)[C@@H](C)CC)[C@@H](C)O)C(N)=O` [compound 1990, dW12, W23-LA-PTH(7-36)-1990] (H-LMHQR[dW]KWIQDARRRAWLHKLIAEIHTAEI-NH2; N-terminus assumed): under setting [1], the IC50 was found to be 1.23 nM.
Consider `CCCC[C@H](NC(=O)[C@@H](N)CC(C)C)C(=O)N[C@@H](Cc1c[nH]cn1)C(=O)N[C@@H](CCC(N)=O)C(=O)N[C@@H](CCCNC(=N)N)C(=O)N[C@H](Cc1c[nH]c2ccccc12)C(=O)N[C@@H](CCCCN)C(=O)N[C@@H](Cc1c[nH]c2ccccc12)C(=O)N[C@H](C(=O)N[C@@H](CCC(N)=O)C(=O)N[C@@H](CC(=O)O)C(=O)N[C@@H](C)C(=O)N[C@@H](CCCNC(=N)N)C(=O)N[C@@H](CCCNC(=N)N)C(=O)N[C@@H](CCCNC(=N)N)C(=O)N[C@@H](C)C(=O)N[C@@H](Cc1c[nH]c2ccccc12)C(=O)N[C@@H](CC(C)C)C(=O)N[C@@H](Cc1c[nH]cn1)C(=O)N[C@@H](CCCCN)C(=O)N[C@@H](CC(C)C)C(=O)N[C@H](C(=O)N[C@@H](C)C(=O)N[C@@H](CCC(=O)O)C(=O)N[C@H](C(=O)N[C@@H](Cc1c[nH]cn1)C(=O)N[C@H](C(=O)N[C@@H](C)C(=O)N[C@@H](CCC(=O)O)C(=O)N[C@H](C(N)=O)[C@@H](C)CC)[C@@H](C)O)[C@@H](C)CC)[C@@H](C)CC)[C@@H](C)CC` [compound 1992, Nle8, dW12, W23-LA-PTH(7-36)-1992] (H-L[Nle]HQR[dW]KWIQDARRRAWLHKLIAEIHTAEI-NH2; N-terminus assumed), for which the IC50 under setting [1] is 1.55 nM.
Same read-out and setting: then `CCCC[C@H](NC(=O)[C@@H](N)CC(C)C)C(=O)N[C@@H](Cc1c[nH]cn1)C(=O)N[C@@H](CCC(N)=O)C(=O)N[C@@H](CC(C)C)C(=O)N[C@H](Cc1c[nH]c2ccccc12)C(=O)N[C@@H](CCCCN)C(=O)N[C@@H](Cc1c[nH]c2ccccc12)C(=O)N[C@H](C(=O)N[C@@H](CCC(N)=O)C(=O)N[C@@H](CC(=O)O)C(=O)N[C@@H](C)C(=O)N[C@@H](CCCNC(=N)N)C(=O)N[C@@H](CCCNC(=N)N)C(=O)N[C@@H](CCCNC(=N)N)C(=O)N[C@@H](C)C(=O)N[C@@H](Cc1c[nH]c2ccccc12)C(=O)N[C@@H](CC(C)C)C(=O)N[C@@H](Cc1c[nH]cn1)C(=O)N[C@@H](CCCCN)C(=O)N[C@@H](CC(C)C)C(=O)N[C@H](C(=O)N[C@@H](C)C(=O)N[C@@H](CCC(=O)O)C(=O)N[C@H](C(=O)N[C@@H](Cc1c[nH]cn1)C(=O)N[C@H](C(=O)N[C@@H](C)C(=O)N[C@@H](CCC(=O)O)C(=O)N[C@H](C(N)=O)[C@@H](C)CC)[C@@H](C)O)[C@@H](C)CC)[C@@H](C)CC)[C@@H](C)CC` [compound 1997, Nle8,L11, dW12, W23-LA-PTH(7-36)-1997] (H-L[Nle]HQL[dW]KWIQDARRRAWLHKLIAEIHTAEI-NH2; N-terminus assumed), with 2.1 nM.
Still for that read-out and setting: then `CCCC[C@H](NC(=O)[C@H](CC(C)C)NC(=O)[C@H](CCC(N)=O)NC(=O)[C@@H](N)[C@@H](C)CC)C(=O)N[C@@H](Cc1c[nH]cn1)C(=O)N[C@@H](CCC(N)=O)C(=O)N[C@@H](CC(C)C)C(=O)N[C@H](Cc1c[nH]c2ccccc12)C(=O)N[C@@H](CCCCN)C(=O)N[C@@H](Cc1c[nH]c2ccccc12)C(=O)N[C@H](C(=O)N[C@@H](CCC(N)=O)C(=O)N[C@@H](CC(=O)O)C(=O)N[C@@H](C)C(=O)N[C@@H](CCCNC(=N)N)C(=O)N[C@@H](CCCNC(=N)N)C(=O)N[C@@H](CCCNC(=N)N)C(=O)N[C@@H](C)C(=O)N[C@@H](Cc1c[nH]c2ccccc12)C(=O)N[C@@H](CC(C)C)C(=O)N[C@@H](Cc1c[nH]cn1)C(=O)N[C@@H](CCCCN)C(=O)N[C@@H](CC(C)C)C(=O)N[C@H](C(=O)N[C@@H](C)C(=O)N[C@@H](CCC(=O)O)C(=O)N[C@H](C(=O)N[C@@H](Cc1c[nH]cn1)C(=O)N[C@H](C(=O)N[C@@H](C)C(=O)N[C@@H](CCC(=O)O)C(=O)N[C@H](C(N)=O)[C@@H](C)CC)[C@@H](C)O)[C@@H](C)CC)[C@@H](C)CC)[C@@H](C)CC` [compound 1999, Nle8, L11, dW12, W23-LA-PTH(5-36)-1999] (H-IQL[Nle]HQL[dW]KWIQDARRRAWLHKLIAEIHTAEI-NH2; N-terminus assumed), with 2.75 nM; and `CC[C@H](C)[C@H](NC(=O)[C@H](CCC(=O)O)NC(=O)[C@H](C)NC(=O)[C@@H](NC(=O)[C@H](Cc1c[nH]cn1)NC(=O)[C@@H](NC(=O)[C@H](CCC(=O)O)NC(=O)[C@H](C)NC(=O)[C@@H](NC(=O)[C@H](CC(C)C)NC(=O)[C@H](CCCCN)NC(=O)[C@H](Cc1c[nH]cn1)NC(=O)[C@H](CC(C)C)NC(=O)[C@H](Cc1c[nH]c2ccccc12)NC(=O)[C@H](C)NC(=O)[C@H](CCCNC(=N)N)NC(=O)[C@H](CCCNC(=N)N)NC(=O)[C@H](CCCNC(=N)N)NC(=O)[C@H](C)NC(=O)[C@H](CC(=O)O)NC(=O)[C@H](CCC(N)=O)NC(=O)[C@@H](NC(=O)[C@H](Cc1c[nH]c2ccccc12)NC(=O)[C@H](CCCCN)NC(=O)[C@@H](Cc1c[nH]c2ccccc12)NC(=O)[C@H](CC(C)C)NC(=O)[C@H](CCC(N)=O)NC(=O)[C@H](Cc1c[nH]cn1)NC(=O)[C@H](CCSC)NC(=O)[C@@H](N)CC(C)C)[C@@H](C)CC)[C@@H](C)CC)[C@@H](C)CC)[C@@H](C)O)C(N)=O` [compound 2001, L11, dW12, W23-LA-PTH(7-36)-2001] (H-LMHQL[dW]KWIQDARRRAWLHKLIAEIHTAEI-NH2; N-terminus assumed), with 2.08 nM.
